Measurements reported in patent US20070049564A1 (Wyeth, priority 2005, published 2007).
Values after ≈ are worked out from the molar mass of the structure shown. Where two headings read alike, the source gives them in different places.

Assays:
E. coli GC 2270 = assay: MIC, broth microdilution; settings: Escherichia coli
S. typhimurium GC 2172 = assay: MIC, broth microdilution; settings: Salmonella enterica, TYPHIMURIUM
E. faecium GC 4556 = assay: MIC, broth microdilution; settings: Enterococcus faecium
E. coli GC 2231 = assay: MIC, broth microdilution; settings: Escherichia coli
E. coli GC 4560 = assay: MIC, broth microdilution; settings: Escherichia coli
S. aureus GC 1079 = assay: MIC, broth microdilution; settings: Staphylococcus aureus
S. aureus GC 6467 = assay: MIC, broth microdilution; settings: Staphylococcus aureus
E. faecalis GC 2242 = assay: MIC, broth microdilution; settings: Enterococcus faecalis
E. coli GC 1073 = assay: MIC, broth microdilution; settings: Escherichia coli
E. coli GC 2233 = assay: MIC, broth microdilution; settings: Escherichia coli
E. coli GC 6465 = assay: MIC, broth microdilution; settings: Escherichia coli
S. aureus GC 4536 = assay: MIC, broth microdilution; settings: Staphylococcus aureus
c. albicans GC 3066 = assay: MIC, broth microdilution
Staph. = assay: Range of MIC for Staph. strains, including MRSA; settings: Staphylococcus aureus, MRSA
E. faecium GC 2243 = assay: MIC, broth microdilution; settings: Enterococcus faecium
S. aureus GC 6469 = assay: MIC, broth microdilution; settings: Staphylococcus aureus
S. aureus GC 2216 = assay: MIC, broth microdilution; settings: Staphylococcus aureus
E. coli GC 2235 = assay: MIC, broth microdilution; settings: Escherichia coli
E. coli = assay: Range of MIC for E. coli strains; settings: Escherichia coli
S. aureus GC 6466 = assay: MIC, broth microdilution; settings: Staphylococcus aureus
[1] = read-out: Range of MIC, Staph (Mouse Serum)
[2] = 20 h, read-out: Range of MIC, E. coli (Mouse Serum)
[3] = read-out: Range of MIC, E. coli (Water)

CCCN(CC(=O)Nc1cc(N(C)C)c2c(c1O)C(=O)C1=C(O)[C@]3(O)C(=O)C(C(N)=O)=C(O)C(N(C)C)C3CC1C2)C(=O)OCc1oc(=O)oc1-c1ccccc1 (stereo in doubt) [Example 110, (2-oxo-5-phenyl-1,3-dioxol-4-yl)methyl 2-{[(7R,10aS)-9-(aminocarbonyl)-4,7-bis(dimethylamino)-1,8,10a,11-tetrahydroxy-10,12-dioxo-5,5a,6,6a,7,10,10a,12-octahydrotetracen-2-yl]amino}-2-oxoethyl(propyl)carbamate]
MIC (E. coli GC 2270; GC2270, pre-incubation in mouse serum): 1 µg/mL (≈ 1.27 µM)
MIC (E. coli GC 2270; GC2270, pre-incubation in water): 1 µg/mL (≈ 1.27 µM)
MIC (S. typhimurium GC 2172; pre-incubation in mouse serum): 64 µg/mL (≈ 81 µM)
MIC (S. typhimurium GC 2172; pre-incubation in water): > 64 µg/mL
MIC (E. faecium GC 4556; GC4556, pre-incubation in mouse serum): 1 µg/mL (≈ 1.27 µM)
MIC (E. faecium GC 4556; GC4556, pre-incubation in water): 2 µg/mL (≈ 2.53 µM)
MIC (E. coli GC 2231; GC2231, pre-incubation in mouse serum): 4 µg/mL (≈ 5.06 µM)
MIC (E. coli GC 2231; GC2231, pre-incubation in water): 8 µg/mL (≈ 10.1 µM)
MIC (E. coli GC 4560; GC4560, pre-incubation in mouse serum): 0.25 µg/mL (≈ 0.317 µM)
MIC (E. coli GC 4560; GC4560, pre-incubation in water): 0.5 µg/mL (≈ 0.633 µM)
MIC (S. aureus GC 1079; GC1079, pre-incubation in mouse serum): 16 µg/mL (≈ 20.3 µM)
MIC (S. aureus GC 1079; GC1079, pre-incubation in water): 16 µg/mL (≈ 20.3 µM)
MIC (S. aureus GC 6467; GC6467, pre-incubation in mouse serum): 32 µg/mL (≈ 40.5 µM)
MIC (S. aureus GC 6467; GC6467, pre-incubation in water): > 64 µg/mL
MIC (E. faecalis GC 2242; GC2242, pre-incubation in mouse serum): 1 µg/mL (≈ 1.27 µM)
MIC (E. faecalis GC 2242; GC2242, pre-incubation in water): 1 µg/mL (≈ 1.27 µM)
MIC (E. coli GC 1073; GC1073, pre-incubation in mouse serum): 2 µg/mL (≈ 2.53 µM)
MIC (E. coli GC 1073; GC1073, pre-incubation in water): 8 µg/mL (≈ 10.1 µM)
MIC (E. coli GC 2233; GC2233, pre-incubation in mouse serum): 0.5 µg/mL (≈ 0.633 µM)
MIC (E. coli GC 2233; GC2233, pre-incubation in water): 1 µg/mL (≈ 1.27 µM)
MIC (E. coli GC 6465; GC6465, pre-incubation in mouse serum): 64 µg/mL (≈ 81 µM)
MIC (E. coli GC 6465; GC6465, pre-incubation in water): > 64 µg/mL
MIC (S. aureus GC 4536; GC4536, pre-incubation in mouse serum): 4 µg/mL (≈ 5.06 µM)
MIC (S. aureus GC 4536; GC4536, pre-incubation in water): 4 µg/mL (≈ 5.06 µM)
MIC (c. albicans GC 3066; Candida albicans, GC3066): > 64 µg/mL
MIC (c. albicans GC 3066; pre-incubation in water): >64 UG/ML
MIC (Staph.; [1]): 1 to 32 µg/mL (≈ 1.27 to 40.5 µM)
MIC (E. faecium GC 2243; GC2243, pre-incubation in mouse serum): 0.5 µg/mL (≈ 0.633 µM)
MIC (E. faecium GC 2243; GC2243, pre-incubation in water): 0.5 µg/mL (≈ 0.633 µM)
MIC (S. aureus GC 6469; GC6469, pre-incubation in mouse serum): 32 µg/mL (≈ 40.5 µM)
MIC (S. aureus GC 6469; GC6469, pre-incubation in water): 32 µg/mL (≈ 40.5 µM)
MIC (S. aureus GC 2216; GC2216, pre-incubation in mouse serum): 2 µg/mL (≈ 2.53 µM)
MIC (S. aureus GC 2216; GC2216, pre-incubation in water): 4 µg/mL (≈ 5.06 µM)
MIC (E. coli GC 2235; GC2235, pre-incubation in mouse serum): 0.5 µg/mL (≈ 0.633 µM)
MIC (E. coli GC 2235; GC2235, pre-incubation in water): 1 µg/mL (≈ 1.27 µM)
MIC (E. coli; [2]): 0.5 to 4 µg/mL (≈ 0.633 to 5.06 µM)
MIC (E. coli; [3]): 1 to 8 µg/mL (≈ 1.27 to 10.1 µM)
MIC (S. aureus GC 6466; GC6466, pre-incubation in mouse serum): 1 µg/mL (≈ 1.27 µM)
MIC (S. aureus GC 6466; GC6466, pre-incubation in water): 2 µg/mL (≈ 2.53 µM)

CCCCN(CC(=O)Nc1cc(N(C)C)c2c(c1O)C(=O)C1=C(O)[C@]3(O)C(=O)C(C(N)=O)=C(O)[C@@H](N(C)C)C3CC1C2)C(=O)OCOC(=O)C(C)C (stereo partly drawn) [Example 1, ({[(2-{[(7S,10aS)-9-(aminocarbonyl)-4,7-bis(dimethylamino)-1,8,10a,11-tetrahydroxy-10,12-dioxo-5,5a,6,6a,7,10,10a,12-octahydrotetracen-2-yl]amino}-2-oxoethyl)(butyl)amino]carbonyl}oxy)methyl 2-methylpropanoate]
MIC (E. coli GC 2270; GC2270, E. coli GC 2270, Mouse Serum pre-incubation): 0.5 µg/mL (≈ 0.685 µM)
MIC (E. coli GC 2270; GC2270, E. coli GC 2270, Water pre-incubation): 16 µg/mL (≈ 21.9 µM)
MIC (S. typhimurium GC 2172; S. typhimurium GC 2172, Mouse Serum pre-incubation): 4 µg/mL (≈ 5.48 µM)
MIC (S. typhimurium GC 2172; S. typhimurium GC 2172, Water pre-incubation): > 64 µg/mL
MIC (E. faecium GC 4556; GC4556, E. faecium GC 4556, Mouse Serum pre-incubation): 1 µg/mL (≈ 1.37 µM)
MIC (E. faecium GC 4556; GC4556, E. faecium GC 4556, Water pre-incubation): 4 µg/mL (≈ 5.48 µM)
MIC (E. coli GC 2231; GC2231, E. coli GC 2231, Mouse Serum pre-incubation): 1 µg/mL (≈ 1.37 µM)
MIC (E. coli GC 2231; GC2231, E. coli GC 2231, Water pre-incubation): 64 µg/mL (≈ 87.7 µM)
MIC (E. coli GC 4560; GC4560, E. coli GC 4560, Mouse Serum pre-incubation): 0.5 µg/mL (≈ 0.685 µM)
MIC (E. coli GC 4560; GC4560, E. coli GC 4560, Water pre-incubation): 2 µg/mL (≈ 2.74 µM)
MIC (S. aureus GC 1079; GC1079, S. aureus GC 1079, Mouse Serum pre-incubation): 2 µg/mL (≈ 2.74 µM)
MIC (S. aureus GC 1079; GC1079, S. aureus GC 1079, Water pre-incubation): 4 µg/mL (≈ 5.48 µM)
MIC (S. aureus GC 6467; GC6467, S. aureus GC 6467, Mouse Serum pre-incubation): 4 µg/mL (≈ 5.48 µM)
MIC (S. aureus GC 6467; GC6467, S. aureus GC 6467, Water pre-incubation): 4 µg/mL (≈ 5.48 µM)
MIC (E. faecalis GC 2242; GC2242, E. faecalis GC 2242, Mouse Serum pre-incubation): 1 µg/mL (≈ 1.37 µM)
MIC (E. faecalis GC 2242; GC2242, E. faecalis GC 2242, Water pre-incubation): 4 µg/mL (≈ 5.48 µM)
MIC (E. coli GC 1073; GC1073, E. coli GC 1073, Mouse Serum pre-incubation): 1 µg/mL (≈ 1.37 µM)
MIC (E. coli GC 1073; GC1073, E. coli GC 1073, Water pre-incubation): 32 µg/mL (≈ 43.8 µM)
MIC (E. coli GC 2233; GC2233, E. coli GC 2233, Mouse Serum pre-incubation): 1 µg/mL (≈ 1.37 µM)
MIC (E. coli GC 2233; GC2233, E. coli GC 2233, Water pre-incubation): 16 µg/mL (≈ 21.9 µM)
MIC (E. coli GC 6465; GC6465, E. coli GC 6465, Mouse Serum pre-incubation): 8 µg/mL (≈ 11 µM)
MIC (E. coli GC 6465; GC6465, E. coli GC 6465, Water pre-incubation): > 64 µg/mL
MIC (S. aureus GC 4536; GC4536, S. aureus GC 4536, Mouse Serum pre-incubation): 2 µg/mL (≈ 2.74 µM)
MIC (S. aureus GC 4536; GC4536, S. aureus GC 4536, Water pre-incubation): 4 µg/mL (≈ 5.48 µM)
MIC (c. albicans GC 3066; Candida albicans, GC3066): > 64 µg/mL
MIC (c. albicans GC 3066; c. albicans GC 3066, Water pre-incubation): >64 UG/ML
MIC (Staph.; read-out: Minimum inhibitory concentration (MIC), Staph. (mouse serum)): 1 to 4 µg/mL (≈ 1.37 to 5.48 µM)
MIC (Staph.; read-out: Minimum inhibitory concentration (MIC), Staph. (water)): 1 to 8 µg/mL (≈ 1.37 to 11 µM)
MIC (Staph.; [1]): 1 to 4 µg/mL (≈ 1.37 to 5.48 µM)
MIC (Staph.; read-out: Range of MIC, Staph (Water)): 1 to 8 µg/mL (≈ 1.37 to 11 µM)
MIC (E. faecium GC 2243; GC2243, E. faecium GC 2243, Mouse Serum pre-incubation): 1 µg/mL (≈ 1.37 µM)
MIC (E. faecium GC 2243; GC2243, E. faecium GC 2243, Water pre-incubation): 2 µg/mL (≈ 2.74 µM)
MIC (S. aureus GC 6469; GC6469, S. aureus GC 6469, Mouse Serum pre-incubation): 2 µg/mL (≈ 2.74 µM)
MIC (S. aureus GC 6469; GC6469, S. aureus GC 6469, Water pre-incubation): 8 µg/mL (≈ 11 µM)
MIC (S. aureus GC 2216; GC2216, S. aureus GC 2216, Mouse Serum pre-incubation): 1 µg/mL (≈ 1.37 µM)
MIC (S. aureus GC 2216; GC2216, S. aureus GC 2216, Water pre-incubation): 4 µg/mL (≈ 5.48 µM)
MIC (E. coli GC 2235; GC2235, E. coli GC 2235, Mouse Serum pre-incubation): 0.5 µg/mL (≈ 0.685 µM)
MIC (E. coli GC 2235; GC2235, E. coli GC 2235, Water pre-incubation): 16 µg/mL (≈ 21.9 µM)
MIC (E. coli; [2]): 0.5 to 1 µg/mL (≈ 0.685 to 1.37 µM)
MIC (E. coli; read-out: Minimum inhibitory concentration (MIC), E. coli (mouse serum)): 0.5 to 1 µg/mL (≈ 0.685 to 1.37 µM)
MIC (E. coli; read-out: Minimum inhibitory concentration (MIC), E. coli (water)): 16 to 64 µg/mL (≈ 21.9 to 87.7 µM)
MIC (E. coli; [3]): 16 to 64 µg/mL (≈ 21.9 to 87.7 µM)
MIC (S. aureus GC 6466; GC6466, S. aureus GC 6466, Mouse Serum pre-incubation): 1 µg/mL (≈ 1.37 µM)
MIC (S. aureus GC 6466; GC6466, S. aureus GC 6466, Water pre-incubation): 1 µg/mL (≈ 1.37 µM)
